Data published in PubChem BioAssay (NCI).
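Growth conditions: 96-well plates. Treatment: test compound, 48 hours, 5 concentrations. Analysis: linear interpolation between bracketing concentrations; unreached endpoints set to highest concentration. The concentration for 50% growth inhibition is given as GI50. At the TGI there is no net growth.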

Tests used:
Assay in all cases: NCI tumour cell line growth inhibition, 48 h
[1] = test system: K-562 leukemia
[2] = test system: SK-MEL-5 melanoma
[3] = test system: UO-31 renal
[4] = test system: NCI-H226 lung
[5] = test system: HCT-15 colon
[6] = test system: SNB-75 CNS
[7] = test system: MOLT-4 leukemia
[8] = test system: NCI-H460 lung
[9] = test system: HOP-62 NSCLC
[10] = test system: COLO 205 colon
[11] = test system: CAKI-1 renal
[12] = test system: PC-3 prostate
[13] = test system: OVCAR-4 ovarian
[14] = test system: EKVX NSCLC
[15] = test system: IGROV1 ovarian
[16] = test system: SF-268 CNS
[17] = test system: SNB-19 CNS
[18] = test system: OVCAR-5 ovarian
[19] = test system: TK-10 renal
[20] = test system: UACC-257 melanoma
[21] = test system: MCF7 breast
[22] = test system: SW-620 colon
[23] = test system: T-47D breast
[24] = test system: LOX IMVI melanoma
[25] = test system: KM12 colon
[26] = test system: A498 renal
[27] = test system: OVCAR-8 ovarian
[28] = test system: SK-MEL-28 melanoma
[29] = test system: HL-60(TB) leukemia
[30] = test system: CCRF-CEM leukemia
[31] = test system: MDA-MB-231 breast
[32] = test system: HT29 colon
[33] = test system: M14 melanoma
[34] = test system: HCC-2998 colon
[35] = test system: SF-295 CNS
[36] = test system: U251 CNS
[37] = test system: OVCAR-3 ovarian
[38] = test system: SK-OV-3 ovarian
[39] = test system: MDA-MB-435
[40] = test system: MALME-3M melanoma
[41] = test system: SN12C renal
[42] = test system: SR leukemia
[43] = test system: NCI/ADR-RES ovarian
[44] = test system: NCI-H23 lung
[45] = test system: BT-549 breast
[46] = test system: ACHN renal
[47] = test system: SF-539 CNS
[48] = test system: HOP-92 NSCLC
[49] = test system: DU-145 prostate
[50] = test system: UACC-62 melanoma
[51] = test system: SK-MEL-2 melanoma
[52] = test system: 786-0 renal
[53] = test system: NCI-H522 lung
[54] = test system: A549 NSCLC
[55] = test system: RXF 393 renal
[56] = test system: HCT-116 colon

## CN1CCN(c2ccc(Nc3nc(NCCCNS(=O)(=O)c4ccc(C(F)(F)F)cc4)c4sccc4n3)cc2)CC1
[1]
  GI50: 1.84 µM
  TGI: 5.52 µM
[2]
  GI50: 1.78 µM
  TGI: 3.2 µM
[3]
  GI50: 1.69 µM
  TGI: 3.68 µM
[4]
  GI50: 9.09 µM
  TGI: 35 µM
[5]
  GI50: 1.58 µM
  TGI: 3.08 µM
[6]
  GI50: 14.5 µM
  TGI: 28 µM
[7]
  GI50: 2.13 µM
  TGI: 7.32 µM
[8]
  GI50: 2.28 µM
  TGI: 4.75 µM
[9]
  GI50: 2.6 µM
  TGI: 7.74 µM
[10]
  GI50: 2.09 µM
  TGI: 4.12 µM
[11]
  GI50: 3.05 µM
  TGI: 11.3 µM
[12]
  GI50: 4.27 µM
  TGI: 20.2 µM
[13]
  GI50: 2.62 µM
  TGI: 8.12 µM
[14]
  GI50: 3.73 µM
  TGI: 14.6 µM
[15]
  GI50: 2.38 µM
  TGI: 6.9 µM
[16]
  GI50: 2.39 µM
  TGI: 9.5 µM
[17]
  GI50: 3.6 µM
  TGI: 12.9 µM
[18]
  GI50: 3.26 µM
  TGI: 13.4 µM
[19]
  GI50: 2.78 µM
  TGI: 8.39 µM
[20]
  GI50: 1.92 µM
  TGI: 3.77 µM
[21]
  GI50: 1.74 µM
  TGI: 3.32 µM
[22]
  GI50: 1.89 µM
  TGI: 3.58 µM
[23]
  GI50: 1.89 µM
  TGI: 4.09 µM
[24]
  GI50: 1.64 µM
  TGI: 3.02 µM
[25]
  GI50: 4.3 µM
  TGI: 20.9 µM
[26]
  GI50: 2.16 µM
  TGI: 3.99 µM
[27]
  GI50: 3.58 µM
  TGI: 21.8 µM
[28]
  GI50: 1.63 µM
  TGI: 3.02 µM
[29]
  GI50: 1.78 µM
  TGI: 3.87 µM
[30]
  GI50: 3.42 µM
  TGI: 17 µM
[31]
  GI50: 1.88 µM
  TGI: 3.51 µM
[32]
  GI50: 2.11 µM
  TGI: 4.89 µM
[33]
  GI50: 1.89 µM
  TGI: 3.59 µM
[34]
  GI50: 1.98 µM
  TGI: 3.98 µM
[35]
  GI50: 1.81 µM
  TGI: 3.51 µM
[36]
  GI50: 2.62 µM
  TGI: 7.06 µM
[37]
  GI50: 2.74 µM
  TGI: 6.89 µM
[38]
  GI50: 12.7 µM
  TGI: 27.4 µM
[39]
  GI50: 1.79 µM
  TGI: 3.24 µM
[40]
  GI50: 1.72 µM
  TGI: 3.13 µM
[41]
  GI50: 2.22 µM
  TGI: 6.02 µM
[42]
  GI50: 2.06 µM
  TGI: 6.39 µM
[43]
  GI50: 3.17 µM
  TGI: 11.2 µM
[44]
  GI50: 3.41 µM
  TGI: 11.5 µM
[45]
  GI50: 1.86 µM
  TGI: 3.68 µM
[46]
  GI50: 2.69 µM
  TGI: 7.44 µM
[47]
  GI50: 1.68 µM
  TGI: 3.05 µM
[48]
  GI50: 1.91 µM
  TGI: 6.29 µM
[49]
  GI50: 5.11 µM
  TGI: 16.8 µM
[50]
  GI50: 1.68 µM
  TGI: 3.11 µM
[51]
  GI50: 1.78 µM
  TGI: 3.46 µM
[52]
  GI50: 1.93 µM
  TGI: 3.79 µM
[53]
  GI50: 1.77 µM
  TGI: 3.7 µM
[54]
  GI50: 3.71 µM
  TGI: 21.5 µM

## CCOC(=O)c1c(NC(=O)c2cccc(C(F)(F)F)c2)sc2c1CCC(=O)C2
[1]
  GI50: 0.488 µM
  TGI: > 100 µM
[5]
  GI50: 0.652 µM
  TGI: > 100 µM
[8]
  GI50: 2.66 µM
  TGI: > 100 µM
[55]
  GI50: 3.36 µM
  TGI: 9.03 µM
[9]
  GI50: 5.2 µM
  TGI: > 100 µM
[12]
  GI50: 1.31 µM
  TGI: > 100 µM
[13]
  GI50: 3.14 µM
  TGI: > 100 µM
[15]
  GI50: 2.4 µM
  TGI: > 100 µM
[16]
  GI50: 4.17 µM
  TGI: > 100 µM
[17]
  GI50: 1.53 µM
  TGI: > 100 µM
[18]
  GI50: 2.12 µM
  TGI: > 100 µM
[19]
  GI50: 5.09 µM
  TGI: > 100 µM
[20]
  GI50: > 100 µM
  TGI: > 100 µM
[22]
  GI50: 0.445 µM
  TGI: > 100 µM
[56]
  GI50: 0.49 µM
  TGI: > 100 µM
[23]
  GI50: 2.12 µM
  TGI: > 100 µM
[24]
  GI50: 0.633 µM
  TGI: > 100 µM
[25]
  GI50: 2.88 µM
  TGI: > 100 µM
[26]
  GI50: > 100 µM
  TGI: > 100 µM
[29]
  GI50: 1.9 µM
  TGI: > 100 µM
[30]
  GI50: 1.03 µM
  TGI: > 100 µM
[31]
  GI50: 3.5 µM
  TGI: > 100 µM
[35]
  GI50: 3.08 µM
  TGI: > 100 µM
[36]
  GI50: 0.479 µM
  TGI: > 100 µM
[37]
  GI50: 3.53 µM
  TGI: > 100 µM
[40]
  GI50: > 100 µM
  TGI: > 100 µM
[42]
  GI50: 0.526 µM
  TGI: > 100 µM
[43]
  GI50: 3.06 µM
  TGI: > 100 µM
[44]
  GI50: 3 µM
  TGI: > 100 µM
[45]
  GI50: 1.61 µM
  TGI: > 100 µM
[46]
  GI50: 2.65 µM
  TGI: > 100 µM
[49]
  GI50: > 100 µM
  TGI: > 100 µM
[50]
  GI50: 2.11 µM
  TGI: > 100 µM
[52]
  GI50: 3.54 µM
  TGI: > 100 µM
[53]
  GI50: 0.514 µM
  TGI: 6.81 µM
